For two compounds, IC50 and Kp results are on record in patent publication US20070259916A1, “mGluR5 modulators II” (AstraZeneca AB, priority 2006, published 2007).

The structures appear in SMILES notation.

Data set [1] has as its target T1, human mGluR5d (Homo sapiens, UniProt P41594).
T1 construct: expressed in transfected cells
The data set can be described thus: FLIPR assay, functional assessment of mGluR5 antagonism (intracellular calcium mobilization). In kind it is cell-based. The following applies: cells expressing human mGluR5d; read-out: FLIPR hmGluR5d. From the text: Functional Assessment of mGluR5 Antagonism in Cell Lines Expressing mGluR5D
The properties of the compounds of the invention can be analyzed using standard assays for pharmacological activity. Examples of glutamate receptor assays are well known in the art as described in for example Aramori et al., Neuron 8:757 (1992), Tanabe et al., Neuron 8:169 (1992), Miller et al., J. Neuroscience 15: 6103 (1995), Balazs, et al., J. Neurochemistry 69:151 (1997). The methodology described in these publications is incorporated herein by reference. Conveniently, the compounds of the invention can be studied by means of an assay (FLIPR) that measures the mobilization of intracellular calcium, [Ca^2+] in cells expressing mGluR5 or another assay (IP3) that measures inositol phosphate turnover.
Cells expressing human mGluR5d as described in WO97/05252 are seeded at a density of 100,000 cells per well on collagen coated clear bottom 96-well plates with black sides and experiments are done 24 h following seeding. […] The fluorescence signal is sampled 50 times at 1 second intervals followed by 3 samples at 5 second intervals immediately after each of the two additions. Responses are measured as the difference between the peak height of the response to agonist, less the background fluorescence within the sample period. […]
(Calcium assays in cells follow changes in intracellular calcium, usually with a dye or a luminescent sensor.)

The nature of data set [2]: Determination of brain to plasma ratio in rat. In kind it is in vivo. The following applies: brain and plasma, female Sprague Dawley rats, drug in brain over drug in plasma, read-out: Brain/Plasma Ratio of compound in Rat. The method, then: Brain to plasma ratios are estimated in female Sprague Dawley rats. The compound is dissolved in water or another appropriate vehicle. For determination of brain to plasma ratio the compound is administrated as a subcutaneous, or an intravenous bolus injection, or an intravenous infusion, or an oral administration. At a predetermined time point after the administration a blood sample is taken with cardiac puncture. The rat is terminated by cutting the heart open, and the brain is immediately retained. The blood samples are collected in heparinized tubes and centrifuged within 30 minutes, in order to separate the plasma from the blood cells. The plasma is transferred to 96-well plates and stored at −20° C. until analysis. The brains are divided in half, and each half is placed in a pre-tarred tube and stored at −20° C. until analysis. Prior to the analysis, the brain samples are thawed and 3 ml/g brain tissue of distilled water is added to the tubes. The brain samples are sonicated in an ice bath until the samples are homogenized. Both brain and plasma samples are precipitated with acetonitrile. After centrifugation, the supernatant is diluted with 0.2% formic acid. […] After reconstitution of the residuals the samples are ready for injection onto the HPLC column.

T1 sequence (P41594 21-942 isoform P41594-3 limits assumed): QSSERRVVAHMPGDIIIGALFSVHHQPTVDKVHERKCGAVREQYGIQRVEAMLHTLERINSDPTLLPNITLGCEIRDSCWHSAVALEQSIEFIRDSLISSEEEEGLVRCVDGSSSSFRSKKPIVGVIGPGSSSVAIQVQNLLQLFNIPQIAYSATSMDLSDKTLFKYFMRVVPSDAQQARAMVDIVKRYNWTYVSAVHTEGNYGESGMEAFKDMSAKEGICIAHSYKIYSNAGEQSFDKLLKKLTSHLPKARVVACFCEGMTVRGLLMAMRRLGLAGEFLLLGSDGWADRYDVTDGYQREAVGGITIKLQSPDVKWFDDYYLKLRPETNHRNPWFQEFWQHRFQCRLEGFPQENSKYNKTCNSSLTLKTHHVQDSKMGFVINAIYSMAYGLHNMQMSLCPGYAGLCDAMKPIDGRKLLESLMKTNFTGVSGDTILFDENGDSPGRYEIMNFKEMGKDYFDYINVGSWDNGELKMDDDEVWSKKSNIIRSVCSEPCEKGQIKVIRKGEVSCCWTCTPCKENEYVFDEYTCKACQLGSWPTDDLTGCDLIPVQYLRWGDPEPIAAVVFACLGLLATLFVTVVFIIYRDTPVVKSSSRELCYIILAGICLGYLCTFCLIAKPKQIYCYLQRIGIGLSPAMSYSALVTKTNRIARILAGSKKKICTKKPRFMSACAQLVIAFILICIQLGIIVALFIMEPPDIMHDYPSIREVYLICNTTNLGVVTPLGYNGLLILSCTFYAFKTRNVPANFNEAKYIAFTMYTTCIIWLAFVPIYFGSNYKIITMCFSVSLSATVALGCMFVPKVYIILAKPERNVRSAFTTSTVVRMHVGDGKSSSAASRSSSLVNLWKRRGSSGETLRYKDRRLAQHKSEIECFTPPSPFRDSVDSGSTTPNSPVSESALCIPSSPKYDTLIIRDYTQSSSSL

On to `Cn1c(-c2cccnc2)nnc1N1CCCC[C@H]1c1nnn(-c2cccc(Cl)c2)n1` [Example 20.2, 3-(5-{(S)-2-[2-(3-Chloro-phenyl)-2H-tetrazol-5-yl]-piperidin-1-yl}-4-methyl-4H-[1,2,4]triazol-3-yl)-pyridine], for which the IC50 in data set [1] was 193 nM. Further, in data set [2], the Kp is 0.085.

As for `COc1cc(-c2nnc(N3CCCCC3c3nnn(-c4cccc(C#N)c4)n3)n2C)ccn1` (stereo not shown) [Example 19.11, 3-(5-{1-[5-(2-Methoxy-pyridin-4-yl)-4-methyl-4H-[1,2,4]triazol-3-yl]-piperidin-2-yl}-tetrazol-2-yl)-benzonitrile], the IC50 in data set [1] was 110 nM. In data set [2], the Kp came out at 0.06.
